Reference: patent US20230416196A1, “DIMER OF BIGUANIDINES AND THEIR THERAPEUTIC USES” (INSTITUT CURIE, priority 2020, published 2023)

Tested on: αKG in activated MDM
Assay: α-Ketoglutarate (αKG) fluorometric quantification in activated MDM
Format: cell-based, human
Conditions: Met 10 mM, LCC-12 10 μM; FIG. 3B
Method: Cell culture. Peripheral blood samples were collected from distinct healthy donors (Etablissement Français du Sang). Pan monocytes were isolated by negative magnetic sorting using microbeads according to the manufacturer's instructions (Miltenyi Biotec, 130-096-537), and cultured in RPMI 1640 supplemented with glutamine (Thermo Fisher Scientific, 61870010), 10% fetal bovine serum and exposed to granulocyte-macrophage colony-stimulating factor (GM-CSF, Miltenyi Biotec, 130-093-866, 100 ng/mL) to induce differentiation into macrophages (MDM). […]
α-Ketoglutarate (αKG) measurements. αKG was quantified using a fluorometric assay (Abcam, ab83431) according to the manufacturer's protocol. […] Cells were subsequently washed with ice-cold 1×PBS and counted. […] Samples were centrifuged at 13000× g for 15 min and the supernatants collected. αKG levels were measured using a standard curve and a control to subtract pyruvate background levels. Fluorescence intensities (ex. 535 nm; em. 590 nm) were recorded using a Perkin Elmer Wallac 1420 Victor2 Microplate Reader, and data were normalized against cell number. […]

N=C(N)NC(=N)NCCCCCCCCCCCCNC(=N)NC(=N)N [LCC-12, lipophilic copper clamp C12]
increase of αKG in activated MDM: more potent than Met at a dose 1000-fold lower
